Data reported in patent US12180176B2, “Fluorinated empathogens” (priority 2021, dated 2024).

What was measured:
[1] = human psychoactivity, literature; cited from earlier work
[2] = Metabolic stability in human liver microsomes; format: in vitro ADME
Description: Purpose: To determine the metabolic stability of a disclosed compound relative to its corresponding non-fluorinated analog. Metabolic stability assays measure the intrinsic clearance (CLint) of a compound, providing critical data needed to calculate other key pharmacokinetic parameters such as bioavailability and half-life (t1/2).
Methods: A high-throughput assay was used to determine metabolic stability of disclosed compounds and non-fluorinated analogs thereof in human liver microsomes. LC/MS analysis was used to quantify the percent compound remaining after incubation. The half-life (t1/2) was estimated from the slope of the initial linear range of the logarithmic curve of compound remaining (%) versus time, assuming first order kinetics.

SERT = SERT (Homo sapiens, UniProt P31645); settings: functional assay; cited from earlier work
Sequence of SERT (P31645 whole entry, species assumed): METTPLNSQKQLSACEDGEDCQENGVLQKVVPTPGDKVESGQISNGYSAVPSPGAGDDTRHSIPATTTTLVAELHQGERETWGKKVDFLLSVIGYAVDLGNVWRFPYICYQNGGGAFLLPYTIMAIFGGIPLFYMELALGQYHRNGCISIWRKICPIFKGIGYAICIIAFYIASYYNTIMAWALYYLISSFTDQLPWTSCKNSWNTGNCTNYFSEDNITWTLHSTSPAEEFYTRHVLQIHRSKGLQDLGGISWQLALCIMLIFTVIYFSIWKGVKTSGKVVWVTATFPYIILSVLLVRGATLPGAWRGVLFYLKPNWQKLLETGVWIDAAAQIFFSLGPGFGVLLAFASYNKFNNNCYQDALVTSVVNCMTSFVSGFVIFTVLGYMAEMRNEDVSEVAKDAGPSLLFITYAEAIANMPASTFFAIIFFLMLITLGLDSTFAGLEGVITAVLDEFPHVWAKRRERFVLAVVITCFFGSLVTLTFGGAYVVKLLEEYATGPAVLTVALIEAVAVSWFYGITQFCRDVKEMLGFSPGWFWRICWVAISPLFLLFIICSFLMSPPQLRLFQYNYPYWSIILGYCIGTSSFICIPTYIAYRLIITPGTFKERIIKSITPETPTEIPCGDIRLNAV

Compound: CC(Cc1ccc2c(c1)OCO2)NCC(F)(F)F (centres unmarked) [MDTFEA, 3,4-methylenedioxy-N-trifluoroethylamphetamine]
- active dose in humans [1]: > 500 mg

Compound: CC(N)Cc1ccc2c(c1)OCO2 (centres unmarked) [MDA, 3,4-methylenedioxyamphetamine]
- active dose in humans [1]: 80 to 160 mg

Compound: CC(Cc1ccc2c(c1)OCO2)NCCF.Cl (centres unmarked) [MDEA-F]
- percent compound remaining ([2]; Time 0.0): 100.0%
- percent compound remaining ([2]; Time 15.00): 81.80%
- percent compound remaining ([2]; Time 30.00): 68.75%
- percent compound remaining ([2]; Time 45.00): 65.35%
- percent compound remaining ([2]; Time 60.00 (one hour of incubation), listed as ASR-1004): 42.05%
- percent compound remaining ([2]; Time 60.00 (one hour of incubation), listed as MIDEA-F): 42%
- half-life (t1/2) ([2]; estimated from slope of log % remaining versus time): about 57 minutes

Compound: CC(N)Cc1ccc2c(c1)OC(F)(F)O2 (centres unmarked) [DiFMDA, Difluoromethylenedioxyamphetamine]
- active dose in humans [1]: > 250 mg
- SERT affinity (SERT): between that of MDA and MDMA
